From patent publication US10947271B2, “Antibacterial agents” (THE UNIVERSITY OF QUEENSLAND, priority 2014, dated 2021)

Assays:
Assay type in all cases: cell-based
Details in all cases: 24 h incubation, visual reading
[1] = system: Staphylococcus aureus MRSA ATCC 43300; assay: MIC assay, S. aureus MRSA ATCC 43300
In short: (§1)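 Overnight MHB cultures at 37° C were diluted 40-fold and grown 2-3 hrs to mid-log, then added at 5×10e5 CFU/mL to twofold compound dilutions (8 to 0.003 μg/ml). Plates were incubated 24 h at 37° C and MIC scored by eye.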

[2] = system: Streptococcus pneumoniae MDR ATCC 700677; assay: MIC assay, S. pneumoniae MDR ATCC 700677
In short: as §1

[3] = system: Enterococcus faecium MDR Van A ATCC 51559; assay: MIC assay, E. faecium MDR Van A ATCC 51559
In short: as §1

Row | Compound | Minimum Inhibitory Concentration (MIC) Staph. aureus ATCC43300 [1] | Minimum Inhibitory Concentration (MIC) S. pneumoniae ATCC 700677 [2] | Minimum Inhibitory Concentration (MIC) E. faecium ATCC51559 [3]
1 | CCCCCCCCCC(=O)N[C@@H](CCCNC(=N)N)C(=O)N[C@@H](CCCNC(=N)N)C(=O)N[C@@H](CCCCNC(=O)[C@H]1NC(=O)[C@H]2NC(=O)[C@H](NC(=O)[C@@H]3NC(=O)[C@H](CC(N)=O)NC(=O)[C@H](NC(=O)[C@@H](CC(C)C)NC)[C@H](O)c4ccc(c(Cl)c4)Oc4cc3cc(c4O[C@@H]3O[C@H](CO)[C@@H](O)[C@H](O)[C@H]3O[C@H]3C[C@](C)(N)[C@H](O)[C@H](C)O3)Oc3ccc(cc3Cl)[C@H]2O)c2ccc(O)c(c2)-c2c(O)cc(O)cc21)C(=O)O [MCC_005507] | xxxx (xxxx = 0.01-<0.1) | xxxx (xxxx = 0.01-<0.1) | x (x = >4)
2 | CN[C@H](CC(C)C)C(=O)N[C@H]1C(=O)N[C@@H](CC(N)=O)C(=O)N[C@H]2C(=O)N[C@H]3C(=O)N[C@H](C(=O)N[C@H](C(=O)NCCCC[C@H](NC(=O)[C@H](CCCCN(C)C)NC(=O)c4ccc(Cl)cc4)C(=O)O)c4cc(O)cc(O)c4-c4cc3ccc4O)[C@H](O)c3ccc(c(Cl)c3)Oc3cc2cc(c3O[C@@H]2O[C@H](CO)[C@@H](O)[C@H](O)[C@H]2O[C@H]2C[C@](C)(N)[C@H](O)[C@H](C)O2)Oc2ccc(cc2Cl)[C@H]1O [MCC_007219] | xx (xx = 1-4) | x (x = >4) | x (x = >4)
3 | CCCCCCCCCC(=O)N[C@@H](CCCCN1CCCCC1)C(=O)N[C@@H](CCCCNC(=O)[C@H]1NC(=O)[C@H]2NC(=O)[C@H](NC(=O)[C@@H]3NC(=O)[C@H](CC(N)=O)NC(=O)[C@H](NC(=O)[C@@H](CC(C)C)NC)[C@H](O)c4ccc(c(Cl)c4)Oc4cc3cc(c4O[C@@H]3O[C@H](CO)[C@@H](O)[C@H](O)[C@H]3O[C@H]3C[C@](C)(N)[C@H](O)[C@H](C)O3)Oc3ccc(cc3Cl)[C@H]2O)c2ccc(O)c(c2)-c2c(O)cc(O)cc21)C(=O)O [MCC_007328] | xxx (xxx = 0.1-<1) | xxx (xxx = 0.1-<1) | x (x = >4)
4 | CCCCCCCCCC(=O)N[C@@H](CCCCN(CC)CC)C(=O)N[C@@H](CCCCNC(=O)[C@H]1NC(=O)[C@H]2NC(=O)[C@H](NC(=O)[C@@H]3NC(=O)[C@H](CC(N)=O)NC(=O)[C@H](NC(=O)[C@@H](CC(C)C)NC)[C@H](O)c4ccc(c(Cl)c4)Oc4cc3cc(c4O[C@@H]3O[C@H](CO)[C@@H](O)[C@H](O)[C@H]3O[C@H]3C[C@](C)(N)[C@H](O)[C@H](C)O3)Oc3ccc(cc3Cl)[C@H]2O)c2ccc(O)c(c2)-c2c(O)cc(O)cc21)C(=O)O [MCC_007330] | xxx (xxx = 0.1-<1) | xxx (xxx = 0.1-<1) | x (x = >4)
5 | CCCCCCCCCCC(=O)NC(CCCNC(=N)N)C(=O)NCCCNC(=O)C1NC(=O)C2NC(=O)C(NC(=O)C3NC(=O)C(CC(N)=O)NC(=O)C(NC(=O)C(CC(C)C)NC)C(O)c4ccc(c(Cl)c4)Oc4cc3cc(c4OC3OC(CO)C(O)C(O)C3OC3CC(C)(N)C(O)C(C)O3)Oc3ccc(cc3Cl)C2O)c2ccc(O)c(c2)-c2c(O)cc(O)cc21 (stereo not drawn) [MCC_007337] | xxxxx (xxxxx = <0.01) | xxxxx (xxxxx = <0.01) | xx (xx = 1-4)

Other lines, results leading:

Row | Minimum Inhibitory Concentration (MIC) Staph. aureus ATCC43300 [1] | Minimum Inhibitory Concentration (MIC) S. pneumoniae ATCC 700677 [2] | Minimum Inhibitory Concentration (MIC) E. faecium ATCC51559 [3] | Compound
6 | xxxx (xxxx = 0.01-<0.1) | xxxx (xxxx = 0.01-<0.1) | xx (xx = 1-4) | CCCCCCCCCC(=O)NC(CCCCN(C)C)C(=O)NCCCNC(=O)C1NC(=O)C2NC(=O)C(NC(=O)C3NC(=O)C(CC(N)=O)NC(=O)C(NC(=O)C(CC(C)C)NC)C(O)c4ccc(c(Cl)c4)Oc4cc3cc(c4OC3OC(CO)C(O)C(O)C3OC3CC(C)(N)C(O)C(C)O3)Oc3ccc(cc3Cl)C2O)c2ccc(O)c(c2)-c2c(O)cc(O)cc21 (stereo not drawn) [MCC_007339]
7 | xxxxx (xxxxx = <0.01) | xxxx (xxxx = 0.01-<0.1) | xx (xx = 1-4) | CCCCCCCCCCC(=O)NC(CCCCN(C)C)C(=O)NCCCNC(=O)C1NC(=O)C2NC(=O)C(NC(=O)C3NC(=O)C(CC(N)=O)NC(=O)C(NC(=O)C(CC(C)C)NC)C(O)c4ccc(c(Cl)c4)Oc4cc3cc(c4OC3OC(CO)C(O)C(O)C3OC3CC(C)(N)C(O)C(C)O3)Oc3ccc(cc3Cl)C2O)c2ccc(O)c(c2)-c2c(O)cc(O)cc21 (stereo not drawn) [MCC_007340]
8 | xx (xx = 1-4) | xx (xx = 1-4) | x (x = >4) | CCCCCCCCCC(=O)N[C@@H](CCCCN1CCOCC1)C(=O)N[C@@H](CCCCNC(=O)[C@H]1NC(=O)[C@H]2NC(=O)[C@H](NC(=O)[C@@H]3NC(=O)[C@H](CC(N)=O)NC(=O)[C@H](NC(=O)[C@@H](CC(C)C)NC)[C@H](O)c4ccc(c(Cl)c4)Oc4cc3cc(c4O[C@@H]3O[C@H](CO)[C@@H](O)[C@H](O)[C@H]3O[C@H]3C[C@](C)(N)[C@H](O)[C@H](C)O3)Oc3ccc(cc3Cl)[C@H]2O)c2ccc(O)c(c2)-c2c(O)cc(O)cc21)C(=O)O [MCC_007379]
9 | xxx (xxx = 0.1-<1) | xxx (xxx = 0.1-<1) | x (x = >4) | CCCCCCCCC(=O)N[C@@H](CCCNC(=N)N)C(=O)N[C@@H](CCCCNC(=O)[C@H]1NC(=O)[C@H]2NC(=O)[C@H](NC(=O)[C@@H]3NC(=O)[C@H](CC(N)=O)NC(=O)[C@H](NC(=O)[C@@H](CC(C)C)NC)[C@H](O)c4ccc(c(Cl)c4)Oc4cc3cc(c4O[C@@H]3O[C@H](CO)[C@@H](O)[C@H](O)[C@H]3O[C@H]3C[C@](C)(N)[C@H](O)[C@H](C)O3)Oc3ccc(cc3Cl)[C@H]2O)c2ccc(O)c(c2)-c2c(O)cc(O)cc21)C(=O)O [MCC_007385]
10 | xx (xx = 1-4) | xx (xx = 1-4) | x (x = >4) | CCCCCCCCC(=O)N[C@@H](CCCCN(C)C)C(=O)N[C@@H](CCCCNC(=O)[C@H]1NC(=O)[C@H]2NC(=O)[C@H](NC(=O)[C@@H]3NC(=O)[C@H](CC(N)=O)NC(=O)[C@H](NC(=O)[C@@H](CC(C)C)NC)[C@H](O)c4ccc(c(Cl)c4)Oc4cc3cc(c4O[C@@H]3O[C@H](CO)[C@@H](O)[C@H](O)[C@H]3O[C@H]3C[C@](C)(N)[C@H](O)[C@H](C)O3)Oc3ccc(cc3Cl)[C@H]2O)c2ccc(O)c(c2)-c2c(O)cc(O)cc21)C(=O)O [MCC_007386]
11 | xxx (xxx = 0.1-<1) | xx (xx = 1-4) | x (x = >4) | CCCCCCCCC(=O)NC(CCCC[N+](C)(C)C)C(=O)NCCCNC(=O)C1NC(=O)C2NC(=O)C(NC(=O)C3NC(=O)C(CC(N)=O)NC(=O)C(NC(=O)C(CC(C)C)NC)C(O)c4ccc(c(Cl)c4)Oc4cc3cc(c4OC3OC(CO)C(O)C(O)C3OC3CC(C)(N)C(O)C(C)O3)Oc3ccc(cc3Cl)C2O)c2ccc(O)c(c2)-c2c(O)cc(O)cc21 (stereo not drawn) [MCC_007388]
12 | xxxx (xxxx = 0.01-<0.1) | xxx (xxx = 0.1-<1) | x (x = >4) | CNC(CC(C)C)C(=O)NC1C(=O)NC(CC(N)=O)C(=O)NC2C(=O)NC3C(=O)NC(C(=O)NC(C(=O)NCCCNC(=O)C(CCCCN)NC(=O)c4ccc(C(F)(F)F)cc4)c4cc(O)cc(O)c4-c4cc3ccc4O)C(O)c3ccc(c(Cl)c3)Oc3cc2cc(c3OC2OC(CO)C(O)C(O)C2OC2CC(C)(N)C(O)C(C)O2)Oc2ccc(cc2Cl)C1O (stereo not drawn) [MCC_007408]
